Assay results from patent US8222244B2, “Staurosporine derivatives as inhibitors of FLT3 receptor tyrosine kinase activity” (Novartis AG, priority 2001, dated 2012).

What follows are compounds tested against T1, human Flt-3 (Homo sapiens, UniProt P36888) (assay: Tyrosine protein kinase assay with purified GST-Flt-3 (33P incorporation)). Details: at a 1.0 micromolar concentration.
T1 construct: expresses the amino acid region amino acids 563-993 of the intra-cytoplasmic kinase domains of human Flt-3; made in house; host or cells: Sf9 insect cells (baculovirus, pFbacG01 donor vector)
T1 sequence (P36888 563-993): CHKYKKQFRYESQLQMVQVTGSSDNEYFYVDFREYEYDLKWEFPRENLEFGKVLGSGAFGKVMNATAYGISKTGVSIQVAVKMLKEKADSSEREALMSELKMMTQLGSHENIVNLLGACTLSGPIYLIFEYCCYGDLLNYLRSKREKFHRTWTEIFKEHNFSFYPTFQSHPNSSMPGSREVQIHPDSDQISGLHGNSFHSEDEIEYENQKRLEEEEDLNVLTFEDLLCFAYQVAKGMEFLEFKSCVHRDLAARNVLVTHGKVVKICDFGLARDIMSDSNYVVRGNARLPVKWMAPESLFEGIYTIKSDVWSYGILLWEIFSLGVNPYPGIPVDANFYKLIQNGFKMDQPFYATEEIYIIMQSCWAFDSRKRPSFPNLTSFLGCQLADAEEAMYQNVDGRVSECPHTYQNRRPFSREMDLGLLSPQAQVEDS
Type: biochemical
Method: ATP into appropriate substrates.
The coding sequences for the cytoplasmic domain of Flt-3 was amplified by PCR from human c-DNA libraries (Clontech). The amplified DNA fragments and the pFbacG01 vector were made compatible for ligation by digestion with BamH1 and Hind III. […] The production of the viruses, the expression of proteins in Sf9 cells and the purification of the GST-fused proteins were performed as following:
(Generation of Bac- to Bac GST-fusion vectors); pFbacG01, pFbacGST2T and pFbacGSTx3 Bac-to-Bac™ donor vectors were generated from pAcG1, pAcG2T and pAcG3X respectively, which facilitate the expression of GST-fusion proteins with the possibility of cleavage with thrombin (pFbacGT2) or factor Xa (pFbacGSTx3) while pFbacG01 expresses no proteolytic cleavage site. These were generated in house by isolation of the DNA fragment containing the gene for GST with the C-terminal protease and restriction sites by restriction enzyme digestion of the relevant PharMingen baculovirus donor vector with EcoRV and EcoRI. This EcoRV/EcoRI fragment was ligated into the pFastBac1 vector which had been restriction digested with BamHI, blunt-ended by Klenow reaction and subsequently digested with EcoRI to generate a blunt-ended/EcoRI vector. (Production of virus); Transfer vectors containing the kinase domains were transfected into the DH10Bac cell line (GIBCO) and plated on selective agar plates. Colonies without insertion of the fusion sequence into the viral genome (carried by the bacteria) are blue. Single white colonies were picked and viral DNA (bacmid) isolated from the bacteria by standard plasmid purification procedures. Sf9 cells or Sf21 cells were then transfected in 25 cm^2 flasks with the viral DNA using Cellfectin reagent. (Determination of small scale protein expression in Sf9 cells); Virus containing media was collected from the transfected cell culture and used for infection to increase its titer. Virus containing media obtained after two rounds of infection was used for large-scale protein expression. For large-scale protein expression 100 cm^2 round tissue culture plates were seeded with 5×10^7 cells/plate and infected with 1 mL of virus-containing media (approx. 5 MOIs). After 3 days the cells were scraped off the plate and centrifuged at 500 rpm for 5 min. Cell pellets from 10-20, 100 cm^2 plates, were resuspended in 50 mL of ice-cold lysis buffer (25 mMTris-HCl, pH7.5, 2 mMEDTA, 1% NP-40, 1 mM DTT, 1 mMP MSF). The cells were stirred on ice for 15 min and then centrifuged at 5000 rpms for 20 min.
ATP 0.1 μCi). […] ATP into appropriate substrates. […] Subsequently, 40 μL of the reaction mixture were transferred onto Immobilon-PVDF membrane (Millipore, Bedford, Mass., USA) previously soaked for 5 min with methanol, rinsed with water, then soaked for 5 min with 0.5% H3PO4 and mounted on vacuum manifold with disconnected vacuum source. After spotting all samples, vacuum was connected and each well rinsed with 200 μL 0.5% H3PO4. Membranes were removed and washed 4× on a shaker with 1.0% H3PO4, once with ethanol. Membranes were counted after drying at ambient temperature, mounting in Packard TopCount 96-well frame, and addition of 10 μL/well of Microscint™ (Packard). […] One unit of protein kinase activity is defined as 1 nmole of ^33P ATP transferred from [γ^33P] ATP to the substrate protein per minute per mg of protein at 37° C.

Compound	Flt3 Inhibition (percent inhibition of Flt3 kinase activity) [%]
COC1C(N(C)CC(=O)O)CC2OC1(C)n1c3ccccc3c3c4c(c5c6ccccc6n2c5c31)C(=O)NC4 (stereo not drawn) [120685-22-5, [9S-(9a,10b,11b,13a)]-N-(2,3,10,11,12,13-Hexahydro-10-methoxy-9-methyl-1-oxo-9,13-epoxy-1H,9H-diindolo[1,2,3-gh:3′,2′,1′-lm]pyrrolo[3,4-j][1,7]benzodiazonin-11-yl)-N-methyl-glycine]	98
CO[C@@H]1/C(=N/O)C[C@H]2O[C@]1(C)n1c3ccccc3c3c4c(c5c6ccccc6n2c5c31)C(=O)NC4 [126221-76-9, (9S,10R,11Z,13R)-2,3,9,10,12,13-Hexahydro-10-methoxy-9-methyl-9,13-epoxy-1H,11H-diindolo[1,2,3-gh:3′,2′,1′-lm]pyrrolo[3,4-j][1,7]benzodiazonine-1,11-dione, 11-oxime]	83
CO[C@@H]1[C@H](N)C[C@H]2O[C@]1(C)n1c3ccccc3c3c4c(c5c6ccccc6n2c5c31)C(=O)NC4 [126221-77-0, (9S,10R,11R,13R)-11-Amino-2,3,10,11,12,13-hexahydro-10-methoxy-9-methyl-9,13-epoxy-1H,9H-diindolo[1,2,3-gh:3′,2′,1′-lm]pyrrolo[3,4-j][1,7]benzodiazonin-1-one]	96
(9a,10b,11b,13a)-11-[(N-Acetyl-4,6-di-O-acetyl-a-muramoyl)methylamino]-2,3,10,11,12,13-hexahydro-10-methoxy-9-methyl-9,13-epoxy-1H,9H-diindolo[1,2,3-gh:3′,2′,1′-lm]pyrrolo[3,4-j][1,7]benzodiazonin-1-one [149622-65-1]	74
CO[C@@H]1[C@H](N(C)C(=O)CCC(=O)[O-])C[C@H]2O[C@]1(C)n1c3ccccc3c3c4c(c5c6ccccc6n2c5c31)C(=O)NC4.[Na+] [120685-10-1, [9S-(9a,10b,11b,13a)]-4-[(2,3,10,11,12,13-Hexahydro-10-methoxy-9-methyl-1-oxo-9,13-epoxy-1H,9H-diindolo[1,2,3-gh:3′,2′,1′-lm]pyrrolo[3,4-j][1,7]benzodiazonin-11-yl)methylamino]-4-oxo-butanoic acid, sodium salt]	98
(9a,10b,11b,13a)-11-[(N-Acetyl-a-normuramoyl)methylamino]-2,3,10,11,12,13-hexahydro-10-methoxy-9-methyl-9,13-epoxy-1H,9H-diindolo[1,2,3-gh:3′,2′,1′-lm]pyrrolo[3,4-j][1,7]benzodiazonin-1-one [149622-55-9]	85
[9S-(9a,10b,11b,13a)]-(2,3,10,11,12,13-Hexahydro-10-methoxy-9-methyl-1,3-dioxo-9,13-epoxy-1H,9H-diindolo[1,2,3-gh:3′,2′,1′-lm]pyrrolo[3,4-j][1,7]benzodiazonin-11-yl)methyl-carbamic acid, 1,1-dimethylethyl ester [154589-93-2]	67
COC1C(=NOC(C)=O)CC2OC1(C)n1c3ccccc3c3c4c(c5c6ccccc6n2c5c31)C(=O)NC4 (stereo not drawn) [187457-78-9, [9S-(9a,10b,13a)]-2,3,9,10,12,13-Hexahydro-10-methoxy-9-methyl-9,13-epoxy-1H,11H-diindolo[1,2,3-gh:3′,2′,1′-lm]pyrrolo[3,4-j][1,7]benzodiazonine-1,11-dione, 11-(O-acetyloxime)]	77
COC1C(N(C)C(=O)C(C)OC2CCOCC2)CC2OC1(C)n1c3ccccc3c3c4c(c5c6ccccc6n2c5c31)C(=O)NC4 (stereo not drawn) [160251-50-3, [9S-[9a,10b,11b(S*),13a]]-N-(2,3,10,11,12,13-Hexahydro-10-methoxy-9-methyl-1-oxo-9,13-epoxy-1H,9H-diindolo[1,2,3-gh:3′,2′,1′-lm]pyrrolo[3,4-j][1,7]benzodiazonin-11-yl)-N-methyl-2-[(tetrahydro-2H-pyran-4-yl)oxy]-propanamide]	89
(9a,10b,11b,13a)-11-[[N-Acetyl-6-O-(methylsulfonyl)-a-muramoyl]methylamino]-2,3,10,11,12,13-hexahydro-10-methoxy-9-methyl-9,13-epoxy-1H,9H-diindolo[1,2,3-gh:3′,2′,1′-lm]pyrrolo[3,4-j][1,7]benzodiazonin-1-one [149622-54-8]	94
(9a,10b,11b,13a)-11-[[N-Acetyl-6-azido-6-deoxy-1-O-(phenylmethyl)-a-muramoyl]methylamino]-2,3,10,11,12,13-hexahydro-10-methoxy-9-methyl-,9,13-epoxy-1H,9H-diindolo[1,2,3-gh:3′,2′,1′-lm]pyrrolo[3,4-j][1,7]benzodiazonin-1-one [149622-42-4]	61
(9a,10b,11b,13a)-11-[[N-Acetyl-6-amino-6-deoxy-1-O-(phenylmethyl)-a-muramoyl]methylamino]-2,3,10,11,12,13-hexahydro-10-methoxy-9-methyl-9,13-epoxy-1H,9H-diindolo[1,2,3-gh:3′,2′,1′-lm]pyrrolo[3,4-j][1,7]benzodiazonin-1-one, monomethanesulfonate [150622-14-3]	99
CC[N+](C)(C)C1CC2OC(C)(C1OC)n1c3ccccc3c3c4c(c5c6ccccc6n2c5c31)C(=O)NC4.[I-] (stereo not drawn) [120685-28-1, N-Ethyl-[9S-(9a,10b,11b,13a)]-2,3,10,11,12,13-hexahydro-10-methoxy-N,N,9-trimethyl-1-oxo-9,13-epoxy-1H,9H-diindolo[1,2,3-gh:3′,2′,1′-lm]pyrrolo[3,4-j][1,7]benzodiazonin-11-aminium iodide]	100
COC(=O)CN(C)C1CC2OC(C)(C1OC)n1c3ccccc3c3c4c(c5c6ccccc6n2c5c31)C(=O)NC4 (stereo not drawn) [120685-21-4, [9S-(9a,10b,11b,13a)]-N-(2,3,10,11,12,13-Hexahydro-10-methoxy-9-methyl-1-oxo-9,13-epoxy-1H,9H-diindolo[1,2,3-gh:3′,2′,1′-lm]pyrrolo[3,4-j][1,7]benzodiazonin-11-yl)-N-methyl-glycine, methyl ester]	82
CNC(=S)N(C)C1CC2OC(C)(C1OC)n1c3ccccc3c3c4c(c5c6ccccc6n2c5c31)C(=O)NC4 (centres unmarked) [120685-13-4, (9a,10b,11b,13a)-N-(2,3,10,11,12,13-Hexahydro-10-methoxy-9-methyl-1-oxo-9,13-epoxy-1H,9H-diindolo[1,2,3-gh:3′,2′,1′-lm]pyrrolo[3,4-j][1,7]benzodiazonin-11-yl)-N,N′-dimethyl-thiourea]	91
[9S-(9a,10b,11b,13a)]-[3-[(2,3,10,11,12,13-Hexahydro-10-methoxy-9-methyl-1-oxo-9,13-epoxy-1H,9H-diindolo[1,2,3-gh:3′,2′,1′-lm]pyrrolo[3,4-j][1,7]benzodiazonin-11-yl)methylamino]-3-oxopropyl]-carbamic acid, 1,1-dimethylethyl ester [124078-44-0]	87
(9a,10b,11b,13a)-11-[[N-Acetyl-1-O-(phenylmethyl)-a-muramoyl]methylamino]-2,3,10,11,12,13-hexahydro-10-methoxy-9-methyl-9,13-epoxy-1H,9H-diindolo[1,2,3-gh:3′,2′,1′-lm]pyrrolo[3,4-j][1,7]benzodiazonin-1-one [149622-39-9]	72
